{"source": "ChEMBL document CHEMBL1152794", "about": "“Synthesis and biological evaluation of a small molecule library of 3rd generation multidrug resistance modulators” (Bioorg Med Chem, 2009)"}
{"molecular_target": "ATP-dependent translocase ABCB1 (Homo sapiens, UniProt P08183)", "sequence (P08183 whole entry)": "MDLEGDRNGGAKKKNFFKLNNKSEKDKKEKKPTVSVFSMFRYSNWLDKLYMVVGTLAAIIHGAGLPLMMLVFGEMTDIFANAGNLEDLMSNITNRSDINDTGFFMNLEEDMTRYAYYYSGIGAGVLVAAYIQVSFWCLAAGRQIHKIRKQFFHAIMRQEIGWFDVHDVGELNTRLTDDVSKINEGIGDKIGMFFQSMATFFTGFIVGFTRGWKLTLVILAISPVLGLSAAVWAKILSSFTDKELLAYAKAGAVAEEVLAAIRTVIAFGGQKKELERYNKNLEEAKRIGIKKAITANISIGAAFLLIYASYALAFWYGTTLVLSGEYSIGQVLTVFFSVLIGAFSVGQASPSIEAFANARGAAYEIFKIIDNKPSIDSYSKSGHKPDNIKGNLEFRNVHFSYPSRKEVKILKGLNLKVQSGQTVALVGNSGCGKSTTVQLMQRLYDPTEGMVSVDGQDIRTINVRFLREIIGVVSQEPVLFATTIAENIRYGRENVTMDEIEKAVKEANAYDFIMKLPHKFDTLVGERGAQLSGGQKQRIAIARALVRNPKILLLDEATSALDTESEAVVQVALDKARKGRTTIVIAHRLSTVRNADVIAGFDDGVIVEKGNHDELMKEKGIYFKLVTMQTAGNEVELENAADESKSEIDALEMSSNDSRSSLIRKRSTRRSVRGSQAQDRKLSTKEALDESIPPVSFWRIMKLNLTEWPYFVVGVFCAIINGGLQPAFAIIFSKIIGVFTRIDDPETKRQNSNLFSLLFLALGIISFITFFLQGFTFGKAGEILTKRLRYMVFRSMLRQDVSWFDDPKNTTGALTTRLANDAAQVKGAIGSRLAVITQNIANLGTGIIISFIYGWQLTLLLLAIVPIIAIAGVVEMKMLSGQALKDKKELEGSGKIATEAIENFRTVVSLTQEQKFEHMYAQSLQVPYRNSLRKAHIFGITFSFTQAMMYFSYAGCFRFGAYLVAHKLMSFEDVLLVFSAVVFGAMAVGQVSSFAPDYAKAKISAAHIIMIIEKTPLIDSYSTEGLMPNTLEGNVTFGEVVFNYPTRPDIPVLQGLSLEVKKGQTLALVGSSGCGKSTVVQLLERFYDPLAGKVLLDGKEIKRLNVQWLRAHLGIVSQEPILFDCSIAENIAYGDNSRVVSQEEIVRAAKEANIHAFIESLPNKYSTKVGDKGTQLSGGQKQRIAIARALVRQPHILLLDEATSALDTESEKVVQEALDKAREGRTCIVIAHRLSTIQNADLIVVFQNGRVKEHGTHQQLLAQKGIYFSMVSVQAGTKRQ", "assay": "Inhibition of P-glycoprotein-mediated multidrug resistance in adriamycin-resistant human A2780/ADR cells by calcein AM assay", "format": "cell-based", "units": {"IC50": "nM"}}
{"smiles": "O=C(Nc1ccc(CCN2CCc3ccccc3C2)cc1)c1ccccc1[N+](=O)[O-]", "IC50": 14000}
{"smiles": "COc1cc2c(cc1OC)CN(CCc1ccc(NC(=O)c3ccnc4ccccc34)cc1)CC2", "IC50": 4700}
{"smiles": "COc1cc2c(cc1OC)CN(CCc1ccc(NC(=O)c3cnc4ccccc4n3)cc1)CC2", "IC50": 470}
{"smiles": "COc1cc2c(cc1OC)CN(CCc1ccc(NC(=O)c3cnc4ccccc4c3)cc1)CC2", "IC50": 570}
{"smiles": "COc1cc2c(cc1OC)CN(CCc1ccc(NC(=O)c3cccc(Br)c3)cc1)CC2", "IC50": 1800}
{"smiles": "COc1cc2c(cc1OC)CN(CCc1ccc(NC(=O)c3ccc4ccccc4c3)cc1)CC2", "IC50": 630}
{"smiles": "O=C(Nc1ccc(CCN2CCc3ccccc3C2)cc1)c1ccc([N+](=O)[O-])cc1", "IC50": 5600}
{"smiles": "COc1cc2c(cc1OC)CN(CCc1ccc(NC(=O)c3ccc(N)cc3)cc1)CC2", "IC50": 4400}
{"smiles": "COc1cc2c(cc1OC)CN(CCc1ccc(NC(=O)c3cc(OC)c(OC)cc3NC(=O)c3cnc4ccccc4c3)cc1)CC2", "IC50": 78}
{"smiles": "COc1cc2c(cc1OC)CN(CCc1ccc(NC(=O)c3ccccc3Br)cc1)CC2", "IC50": 3300}
{"smiles": "COc1cc2c(cc1OC)CN(CCc1ccc(NC(=O)c3ccc4ncccc4c3)cc1)CC2", "IC50": 650}
{"smiles": "COc1cc2c(cc1OC)CN(CCc1ccc(NC(=O)c3cccnc3)cc1)CC2", "IC50": 4800}
{"smiles": "Nc1ccc(C(=O)Nc2ccc(CCN3CCc4ccccc4C3)cc2)cc1", "IC50": 12000}
{"smiles": "COc1cc2c(cc1OC)CN(CCc1ccc(NC(=O)c3ccccc3N)cc1)CC2", "IC50": 8500}
{"smiles": "COc1cc2c(cc1OC)CN(CCc1ccc(NC(=O)c3ccccc3[N+](=O)[O-])cc1)CC2", "IC50": 5400}
{"smiles": "COc1cc2c(cc1OC)CN(CCc1ccc(NC(=O)c3ccccc3)cc1)CC2", "IC50": 4100}
{"smiles": "COc1cc(/C=C/C(=O)Nc2ccc(CCN3CCc4cc(OC)c(OC)cc4C3)cc2)c([N+](=O)[O-])cc1OC", "IC50": 1500}
{"smiles": "COc1cc2c(cc1OC)CN(CCc1ccc(NC(=O)c3ccc4ccccc4n3)cc1)CC2", "IC50": 850}
{"smiles": "COc1cc2c(cc1OC)CN(CCc1ccc(NC(=O)Nc3ccccc3N)cc1)CC2", "IC50": 21000}
{"smiles": "Nc1ccccc1NC(=O)Nc1ccc(CCN2CCc3ccccc3C2)cc1", "IC50": 19000}
{"smiles": "COc1cc2c(cc1OC)CN(CCc1ccc(NC(=O)COc3ccccc3N)cc1)CC2", "IC50": 3400}
{"smiles": "COc1cc2c(cc1OC)CN(CCc1ccc(NC(=O)/C=C/c3ccc(Cl)cc3)cc1)CC2", "IC50": 670}
{"smiles": "COc1cc2c(cc1OC)CN(CCc1ccc(NC(=O)COc3ccccc3)cc1)CC2", "IC50": 3100}
{"smiles": "COc1cc2c(cc1OC)CN(CCc1ccc(NC(=O)/C=C/c3ccccc3[N+](=O)[O-])cc1)CC2", "IC50": 1100}
{"smiles": "COc1cc2c(cc1OC)CN(CCc1ccc(NC(=O)c3ccc4c(c3)OCO4)cc1)CC2", "IC50": 2100}
{"smiles": "COc1cc2c(cc1OC)CN(CCc1ccc(NC(=O)Nc3cccc(N)c3)cc1)CC2", "IC50": 14000}
{"smiles": "COc1cc2c(cc1OC)CN(CCc1ccc(NC(=O)Nc3ccc(N)cc3)cc1)CC2", "IC50": 31000}
{"smiles": "COc1cc2c(cc1OC)CN(CCc1ccc(NC(=O)Nc3ccc([N+](=O)[O-])cc3)cc1)CC2", "IC50": 1500}
{"smiles": "COc1cc2c(cc1OC)CN(CCc1ccc(NC(=O)Nc3ccccc3[N+](=O)[O-])cc1)CC2", "IC50": 330}
{"smiles": "O=C(Nc1ccc(CCN2CCc3ccccc3C2)cc1)Nc1ccccc1[N+](=O)[O-]", "IC50": 770}
{"smiles": "COc1cc2c(cc1OC)CN(CCc1ccc(NC(=O)COc3ccccc3[N+](=O)[O-])cc1)CC2", "IC50": 220}
{"smiles": "COc1cc2c(cc1OC)CN(CCc1ccc(NC(=O)Nc3cccc([N+](=O)[O-])c3)cc1)CC2", "IC50": 670}
{"smiles": "COc1cc2c(cc1OC)CN(CCc1ccc(NC(=O)/C=C/c3ccccc3)cc1)CC2", "IC50": 1400}
{"smiles": "COc1cc2c(cc1OC)CN(CCc1ccc(NC(=O)c3ccc([N+](=O)[O-])cc3)cc1)CC2", "IC50": 1400}
